These results are taken from ChEMBL document CHEMBL5131432, “Novel 2,4-disubstituted quinazoline analogs as antibacterial agents with improved cytotoxicity profile: Modification of the benzenoid part” (Bioorg Med Chem Lett, 2022).

Converted amounts (≈) assume the structure as drawn.

In data set [1] the test system is Enterococcus faecium. The experiment in a line: Antibacterial activity against Enterococcus faecium DSM-20477 assessed as bacterial growth inhibition. The format is functional.
In data set [2] the test system is Streptococcus pneumoniae. The experiment in a line: Antibacterial activity against penicillin-resistant Streptococcus pneumoniae DSM-11865 assessed as bacterial growth inhibition. Format: functional.
Data set [3] relates to Enterococcus faecalis. The experiment in a line: Antibacterial activity against Enterococcus faecalis DSM-20478 assessed as bacterial growth inhibition. The format is functional.
The subject of data set [4] is Staphylococcus aureus. The experiment in a line: Antibacterial activity against methicillin-resistant Staphylococcus aureus N315 assessed as bacterial growth inhibition. The format is functional.
The test system of data set [5] is Streptococcus pneumoniae. As to the kind of experiment: Antibacterial activity against Streptococcus pneumoniae DSM-20566 assessed as bacterial growth inhibition. Format: functional.
For data set [6], the system named is Escherichia coli. The experiment in a line: Antibacterial activity against wild type Escherichia coli DSM-11116 assessed as bacterial growth inhibition. Format: functional.
Data set [7] has as its system Staphylococcus aureus. The experiment in a line: Antibacterial activity against methicillin-sensitive Staphylococcus aureus Newman assessed as bacterial growth inhibition. The format is functional.
For data set [8], the system named is Staphylococcus aureus. As to the kind of experiment: Antibacterial activity against methicillin-resistant and vancomycin-intermediate Staphylococcus aureus Mu50 assessed as bacterial growth inhibition. Format: functional.
The subject of data set [9] is Mycolicibacterium smegmatis. The experiment in a line: Antibacterial activity against Mycobacterium smegmatis mc2 155 assessed as bacterial growth inhibition. The format is functional.
The subject of data set [10] is Escherichia coli. The experiment in a line: Antibacterial activity against Escherichia coli K12 harbouring TolC-deficient mutant assessed as bacterial growth inhibition. The format is functional.
Data set [11] is described as follows: Cytotoxicity against human HepG2 cells assessed as inhibition of cell growth. The format is toxicity, cell-based.

A word on the MIC: it is the lowest concentration found to suppress growth. `CCCCNc1nc(SCCCC)nc2ccc(F)cc12`: the MIC in [1], in data set [2], in [3], in data set [4], in data set [5] and in [6] was greater than 128 µg/mL throughout. Also, the MIC in data set [7], in [8], in data set [9] and in data set [10] was greater than 128 µg/mL each time.
`CCCCNc1nc(SCCCC)nc2ccc(-c3cccc(CO)c3)cc12`: the MIC in data set [1], in [2], in data set [3], in [4], in data set [5] and in data set [6] was greater than 128 µg/mL throughout. The MIC in data set [7], in [8], in data set [9] and in data set [10] was greater than 128 µg/mL each time.
Take `CCCCNc1nc(SCCCC)nc2cc(Br)ccc12`: the MIC in data set [1], in data set [2], in [3], in data set [4], in [5] and in data set [6] was greater than 128 µg/mL each time. For the same compound, the MIC in [7], in data set [8], in data set [9] and in [10] was greater than 128 µg/mL throughout.
For `CCCCNc1nc(SCCCC)nc2ccc(Br)cc12`, the MIC in data set [1], in data set [2], in [3], in data set [4], in data set [5] and in data set [6] was greater than 128 µg/mL in each case. Moreover, the MIC in data set [7], in data set [8], in data set [9] and in data set [10] was greater than 128 µg/mL throughout.
What is called IC50 is the concentration at which inhibition is half-maximal. Take `CCCCNc1nc(SCCCC)nc2ccc(-c3cccc(C(=O)O)c3)cc12`: the MIC in [1] was 8 µg/mL (≈ 19.5 µM); in data set [2], 16 µg/mL (≈ 39.1 µM); in data set [3], 8 µg/mL (≈ 19.5 µM); in data set [4], 8 µg/mL (≈ 19.5 µM); in data set [5], 4 µg/mL (≈ 9.77 µM); in data set [6] it was greater than 128 µg/mL. Moreover, the MIC in [7] was 8 µg/mL (≈ 19.5 µM); in data set [8], 8 µg/mL (≈ 19.5 µM); in data set [9], greater than 128 µg/mL; in data set [10], greater than 128 µg/mL. Further, the IC50 in [11] was greater than 37 µg/mL.
Turning to `CCCCNc1nc(SCCCC)nc2ccc(-c3ccc(C(=O)O)cc3)cc12`, the MIC in data set [1], in [2], in data set [3], in data set [4], in data set [5] and in data set [6] was greater than 128 µg/mL in each case. The MIC in data set [7], in data set [8], in data set [9] and in data set [10] was greater than 128 µg/mL in each case.
In the case of `CCCCNc1nc(SCCCC)nc2ccc(NC(=O)NCC)cc12`, the MIC in [1], in data set [2], in [3], in data set [4], in data set [5] and in data set [6] was greater than 128 µg/mL throughout. Also, the MIC in data set [7], in [8], in data set [9] and in data set [10] was greater than 128 µg/mL in each case.
In the case of `CCCCNc1nc(SCCCC)nc2cc(-c3ccccc3)ccc12`, the MIC in [1], in data set [2], in [3], in data set [4], in data set [5] and in data set [6] was greater than 128 µg/mL in each case. Further, the MIC in [7], in data set [8], in data set [9] and in [10] was greater than 128 µg/mL each time.
As for `CCCCNc1nc(SCCCC)nc2ccc(-c3cccc(OC)c3)cc12`, the MIC in [1], in [2], in [3], in [4], in [5] and in data set [6] was greater than 128 µg/mL throughout. Further, the MIC in data set [7], in [8], in [9] and in data set [10] was greater than 128 µg/mL in each case.
Consider `CCCCNc1nc(SCCCC)nc2nn(CCCC)cc12`, for which the MIC in data set [1], in [2], in [3], in data set [4], in data set [5] and in data set [6] was greater than 128 µg/mL each time. The MIC in [7], in data set [8], in [9] and in data set [10] was greater than 128 µg/mL each time.
Consider `CCCCSc1nc(SCCCC)c2cc(NS(=O)(=O)CC)ccc2n1`, for which the MIC in [1] was 8 µg/mL (≈ 19.3 µM); in data set [2], 3 µg/mL (≈ 7.25 µM); in data set [3], 8 µg/mL (≈ 19.3 µM); in data set [4], greater than 128 µg/mL; in data set [5] it was 4 µg/mL (≈ 9.67 µM); in data set [6], greater than 128 µg/mL. Also, the MIC in [7], in data set [8], in data set [9] and in [10] was greater than 128 µg/mL throughout. For the same compound, the IC50 in data set [11] was greater than 37 µg/mL.
Consider `CCCCNc1nc(SCCCC)nc2ccc(-c3cccnc3)cc12`, for which the MIC in [1], in data set [2], in data set [3], in data set [4], in data set [5] and in data set [6] was greater than 128 µg/mL throughout. Further, the MIC in data set [7], in [8], in data set [9] and in data set [10] was greater than 128 µg/mL each time.
`CC(=O)NC[C@H]1CN(c2ccc(N3CCOCC3)c(F)c2)C(=O)O1` [LINEZOLID]: the MIC in data set [1] is 4 µg/mL (≈ 11.9 µM); in [6], greater than 64 µg/mL; in [7], 1 µg/mL (≈ 2.96 µM); in data set [9] it was 4 µg/mL (≈ 11.9 µM); in [10], 16 µg/mL (≈ 47.4 µM).
Take `CCCCNc1nc(SCCCC)nc2ccc(Cl)cc12`: the MIC in [1], in [2], in data set [3], in [4], in data set [5] and in [6] was greater than 128 µg/mL each time. Further, the MIC in data set [7], in data set [8], in [9] and in [10] was greater than 128 µg/mL in each case.
Consider `CCCCNc1nc(SCCCC)nc2cc(-c3cccnc3)ccc12`, for which the MIC in data set [1], in data set [2], in [3], in data set [4], in [5] and in [6] was greater than 128 µg/mL in each case. The MIC in data set [7], in data set [8], in [9] and in data set [10] was greater than 128 µg/mL each time.
As to `CCCCNc1nc(SCCCC)nc2ccc(-c3cn[nH]c3)cc12`, the MIC in data set [1], in [2], in data set [3], in data set [4], in data set [5] and in data set [6] was greater than 128 µg/mL each time. The MIC in [7], in data set [8], in [9] and in data set [10] was greater than 128 µg/mL throughout.
In the case of `CCCCNc1nc(SCCCC)nc2ccc(-c3cccc(C#N)c3)cc12`, the MIC in data set [1], in [2], in [3], in [4], in data set [5] and in [6] was greater than 128 µg/mL throughout. The MIC in [7], in data set [8], in data set [9] and in data set [10] was greater than 128 µg/mL each time.
As to `CCCCNc1nc(SCCCC)nc2cc(Cl)ccc12`, the MIC in data set [1], in data set [2], in [3], in data set [4], in [5] and in data set [6] was greater than 128 µg/mL each time. Further, the MIC in data set [7], in data set [8], in [9] and in data set [10] was greater than 128 µg/mL each time.
Take `CCCCNc1nc(SCCCC)nc2ccc(-c3ccncc3)cc12`: the MIC in data set [1], in data set [2], in [3], in [4], in [5] and in data set [6] was greater than 128 µg/mL each time. Besides, the MIC in [7], in data set [8], in data set [9] and in data set [10] was greater than 128 µg/mL in each case.
Take `CN[C@H](CC(C)C)C(=O)N[C@H]1C(=O)N[C@@H](CC(N)=O)C(=O)N[C@H]2C(=O)N[C@H]3C(=O)N[C@H](C(=O)N[C@H](C(=O)O)c4cc(O)cc(O)c4-c4cc3ccc4O)[C@H](O)c3ccc(c(Cl)c3)Oc3cc2cc(c3O[C@@H]2O[C@H](CO)[C@@H](O)[C@H](O)[C@H]2O[C@H]2C[C@](C)(N)[C@H](O)[C@H](C)O2)Oc2ccc(cc2Cl)[C@H]1O` [VANCOMYCIN]: the MIC in data set [2] is 1 µg/mL (≈ 0.69 µM); in data set [3] it was 0.5 µg/mL (≈ 0.345 µM); in data set [5] it was 0.5 µg/mL (≈ 0.345 µM); in [6] it was greater than 64 µg/mL; in data set [8] it was 8 µg/mL (≈ 5.52 µM); in data set [9], 8 µg/mL (≈ 5.52 µM). In addition, the MIC in [10] is greater than 64 µg/mL.
As for `CCCCNc1nc(SCCCC)nc2c1cnn2CCCC`, the MIC in data set [1] was greater than 128 µg/mL; in data set [2], greater than 128 µg/mL; in data set [3] it was greater than 128 µg/mL; in data set [4] it was greater than 128 µg/mL; in data set [5], 8 µg/mL (≈ 23.8 µM); in [6], greater than 128 µg/mL. Besides, the MIC in [7], in data set [8], in data set [9] and in data set [10] was greater than 128 µg/mL throughout.
On to `CCCCNc1nc(SC)nc2n[nH]cc12`, for which the MIC was greater than 128 µg/mL in [1]; greater than 128 µg/mL in data set [2]; greater than 128 µg/mL in [3]; 64 µg/mL (≈ 270 µM) in data set [4]; greater than 128 µg/mL in data set [5]; greater than 128 µg/mL in data set [6]. Besides, the MIC in [7] is 64 µg/mL (≈ 270 µM); in data set [8], 64 µg/mL (≈ 270 µM); in data set [9] it was greater than 128 µg/mL; in [10], 64 µg/mL (≈ 270 µM).
